# Measured values from patent US20100146643A1, “RAPID IN VIVO MODEL FOR ANGIOGENESIS” (ANTICANCER, INC, priority 2006, published 2010).
# Assays:
# [1] = test system: MIA PaCa-2 human pancreatic cancer; details: orthotopically transplanted MIA PaCa-2-RFP, ND-GFP transgenic nude mice; cited from earlier work
# [2] = test system: XPA-1-RFP human pancreatic cancer; details: liver metastasis of XPA-1-RFP, ND-GFP transgenic nude mice; cited from earlier work
# [3] = test system: nascent blood vessels in bFGF-containing Gelfoam; assay: Gelfoam subcutaneous implant angiogenesis model in ND-GFP transgenic nude mice; assay type: in vivo, mouse
# Procedure: Transgenic C57/B6 nude mice that produce green fluorescent protein (GFP) in endothelial cells were used. These transgenic mice (6-8 weeks old) were anesthetized with tribromoethanol. Gelfoam® (Pharmacia & Upjohn company, Kalamazoo, Mich.) blocks (5×5 mm) were either treated with 300 ng basic fibroblast growth factor (bFGF) (Chemicon, Temecula, Calif.) in 75 μl RPMI 1640 medium (Cellgro, Herndon, Va.) or not treated. The Gelfoam® blocks were transplanted into the subcutis on both flanks of the transgenic mice, a treated block on one flank and an untreated block on the other. One group of mice was given daily ip injections of 5 μg/g of doxorubicin and another group was given 0.9% NaCl solution (vehicle control) at days 0, 1, and 2 after transplantation of Gelfoam®. Skin flaps were made at day 7 under anesthesia. Angiogenesis was quantified by measuring the length of fluorescent nascent blood vessels in the skin flap by in vivo fluorescence microscopy imaging.
# A Leica fluorescence stereo microscope model LZ12 equipped with a mercury lamp and a 50-W power supply was used. Selective excitation of GFP was produced through a D425/60 band-pass filter and a 470 DCXR dichroic mirror. Emitted fluorescence was collected through a long-pass filter (GG475; Chroma Technology, Brattleboro, Vt.) on a Hamamatsu C5810 3-chip cooled color charge-coupled device camera (Hamamatsu Photonics, Bridgewater, N.J.). Images were processed for contrast and brightness and analyzed with the use of IMAGE PRO PLUS 3.1 software (Media Cybernetics, Silver Spring, Md.). High-resolution images of 1024×724 pixels were captured directly on an IBM PC or continuously through video output on a high-resolution Sony VCR (model SLVR1000; Sony, Tokyo).
# The experimental data are expressed as the mean ±SD. Statistical analysis was performed using the two-tailed Student's t test.
# [4] = test system: B16F10-RFP murine melanoma; details: ND-GFP mice transplanted with B16F10-RFP; cited from earlier work
# [5] = Gelfoam containing 300 ng bFGF, mice given 0.9% NaCl, day 7
compound,measurement,setting,value
Nc1ccn([C@@H]2O[C@H](CO)[C@@H](O)C2(F)F)c(=O)n1 [Gemcitabine],mean nascent blood vessel density in the tumor,[1],significantly decreased
same,tumor volume,[1],decreased tumor volume
same,mean nascent blood vessel density in the liver metastases,[2],significantly decreased
COc1cccc2c1C(=O)c1c(O)c3c(c(O)c1C2=O)C[C@@](O)(C(=O)CO)C[C@@H]3O[C@H]1C[C@H](N)[C@H](O)[C@H](C)O1 [doxorubicin],"extent of angiogenesis (mean nascent blood vessel length, FIG. 4) in bFGF-treated Gelfoam","[3]; doxorubicin 5 μg/g ip at days 0, 1, 2, day 7, compared with untreated Gelfoam in NaCl-treated mice",reduced below that of untreated Gelfoam® in the sodium chloride treated mice
same,neovasculature in the bFGF-treated foam (FIG. 2c),"[3]; doxorubicin 5 μg/g ip at days 0, 1, 2, skin flap at day 7, Gelfoam with 300 ng bFGF",greatly diminished neovasculature
same,angiogenesis in the foam not containing bFGF (FIG. 2d),"[3]; doxorubicin 5 μg/g ip at days 0, 1, 2, skin flap at day 7, Gelfoam without bFGF",no observable angiogenesis
same,nascent tumor angiogenesis,[4],inhibit nascent tumor angiogenesis
same,tumor growth,[4],inhibit
"bFGF: basic fibroblast growth factor (Chemicon), growth factor loaded in Gelfoam to encourage angiogenesis",mean nascent blood vessel length,[3]; [5],~6 mm/mm^2
same,neovasculature formed in the bFGF-containing Gelfoam patch (FIG. 2a),[3]; [5],a large complex of neovasculature is formed
